What was measured:
[1] = test system: Human immunodeficiency virus 1; assay: Antiviral activity against HIV1 harboring reverse transcriptase K103N/Y181C mutant infected in human MT4 cells assessed as reduction in virus-induced cytopathogenicity after 5 days by MTT assay; assay type: functional, organism-based; conditions: Human immunodeficiency virus 1, MT4, 120 h
[2] = Selectivity index, ratio of CC50 for human MT4 cells to EC50 for HIV1 3B; assay type: toxicity, cell-based; conditions: read-out: Ratio CC50/EC50
[3] = test system: Human immunodeficiency virus 2; assay: Antiviral activity against HIV2 ROD infected in human MT4 cells assessed as reduction in virus-induced cytopathogenicity after 5 days by MTT assay; assay type: functional, organism-based; conditions: Human immunodeficiency virus 2, ISOLATE ROD, MT4, 120 h
[4] = Cytotoxicity against human MT4 cells measured by MTT assay; assay type: cell-based
[5] = test system: Human immunodeficiency virus 1; assay: Antiviral activity against wild type HIV1 3B infected in human MT4 cells assessed as reduction in virus-induced cytopathogenicity after 5 days by MTT assay; assay type: functional, organism-based; conditions: Human immunodeficiency virus 1, 3B, MT4, 120 h

| Compound | EC50 [1] [µM] | selectivity ratio [2] | EC50 [3] [µM] | CC50 [4] [µM] | EC50 [5] [µM] |
| --- | --- | --- | --- | --- | --- |
| Cc1cc(SC2CCCCC2)nc(Nc2ccc(C#N)cc2)n1 | > 192 | ≥ 2010 | > 192 | ≥ 192 | 0.096 |
| N#Cc1ccc(Nc2nccc(OC3CCCCC3)n2)cc1 | > 322 | 276 | > 322 | 322 | 1.16 |
| N#Cc1ccc(Nc2nccc(OC3CCCC3)n2)cc1 | > 340 | ≥ 51 | 31.3 | ≥ 340 | 6.71 |
| Cc1cnc(Nc2ccc(C#N)cc2)nc1OC1CCCCC1 | > 31.2 | 5 | > 31.2 | 31.2 | 6.49 |
| Cc1cnc(Nc2ccc(C#N)cc2)nc1OC1CCCC1 | – | < 1 | > 9.99 | 9.99 | > 9.99 |
| Cc1cc(OC2CCCCC2)nc(Nc2ccc(C#N)cc2)n1 | – | < 1 | > 0.32 | 0.32 | > 0.32 |
| Cc1cc(OC2CCCC2)nc(Nc2ccc(C#N)cc2)n1 | – | < 1 | > 1.05 | 1.05 | > 1.05 |
| N#Cc1ccc(Nc2nccc(NC3CCCCC3)n2)cc1 | > 7.33 | 8 | > 7.33 | 7.33 | 0.96 |
| N#Cc1ccc(Nc2nccc(NC3CCCC3)n2)cc1 | > 9.13 | 6 | > 9.13 | 9.13 | 1.58 |
| N#Cc1ccc(Nc2nccc(NC3CC3)n2)cc1 | – | < 1 | > 1.19 | 1.19 | > 1.19 |
| Cc1cnc(Nc2ccc(C#N)cc2)nc1NC1CCCCC1 | – | < 1 | > 1.3 | 1.3 | > 1.3 |
| Cc1cnc(Nc2ccc(C#N)cc2)nc1NC1CCCC1 | – | < 1 | > 0.17 | 0.17 | > 0.17 |
| Cc1cnc(Nc2ccc(C#N)cc2)nc1NC1CC1 | – | < 1 | > 0.36 | 0.36 | > 0.36 |
| Cc1cc(NC2CCCCC2)nc(Nc2ccc(C#N)cc2)n1 | – | < 1 | > 0.34 | 0.34 | > 0.34 |
| Cc1cc(NC2CCCC2)nc(Nc2ccc(C#N)cc2)n1 | – | < 1 | > 0.31 | 0.31 | > 0.31 |
| Cc1cc(NC2CC2)nc(Nc2ccc(C#N)cc2)n1 | – | < 1 | > 0.088 | 0.088 | > 0.088 |
| N#Cc1ccc(Nc2nccc(SC3CCCCC3)n2)cc1 | > 403 | > 7290 | > 403 | > 403 | 0.055 |
| Cc1cnc(Nc2ccc(C#N)cc2)nc1SC1CCCCC1 | > 33.4 | 79 | > 33.4 | 33.4 | 0.43 |
| CC(C)Nc1cccnc1N1CCN(C(=O)c2cc3cc(NS(C)(=O)=O)ccc3[nH]2)CC1 [DELAVIRDINE] | > 4.39 | > 274 | – | > 4.39 | 0.016 |
| O=C1Nc2ccc(Cl)cc2[C@@](C#CC2CC2)(C(F)(F)F)O1 [EFAVIRENZ] | 0.51 | > 1150 | – | > 6.34 | 0.0054 |
| Cc1cc(C#N)cc(C)c1Oc1nc(Nc2ccc(C#N)cc2)nc(N)c1Br [ETRAVIRINE] | 0.034 | 12900 | > 27.8 | 27.8 | 0.0022 |
| Cc1ccnc2c1NC(=O)c1cccnc1N2C1CC1 [NEVIRAPINE] | 3.49 | – | > 15 | > 15 | – |
| Cc1cn([C@H]2C[C@H](N=[N+]=[N-])[C@@H](CO)O2)c(=O)[nH]c1=O [ZIDOVUDINE] | 0.013 | ≥ 6360 | 0.0075 | ≥ 46.4 | 0.0075 |

From ChEMBL document CHEMBL1926600, “Design, synthesis and biological evaluation of cycloalkyl arylpyrimidines (CAPYs) as HIV-1 NNRTIs” (Bioorg Med Chem, 2011)
